Measured values reported in patent publication US20110263516A1, “VASODILATOR” (CALPIS CO., LTD., priority 2006, published 2011).

What was measured:
[1] = tested on: thoracic aorta ring of a Wistar rat; test: Vasodilating test on phenylephrine-preconstricted aorta ring (Magnus apparatus); type: cell-based; details: aorta ring preconstricted with 1 μM phenylephrine; for vasodilator response at 10 mM: FIG. 1; for concentration from which the vasodilator response was observed: ten-fold increasing concentrations from 10^-9 M, change in tension
Experimental: The thoracic aorta of a Wistar rat was taken out, cut into 2 mm long, and made into an aorta ring. The ring was set in a Magnus apparatus (product name “micro tissue organ bath MTB-1Z”, manufactured by LABO SUPPORT CO., LTD.), and allowed to equilibrate with a constant tension. The constriction response of the aorta ring was confirmed with 50 mM KCl.
Next, the aorta ring was preliminarily constricted with 1 μM phenylephrine, and VPP and IPP prepared in Synthesis Example were added at ten-fold increasing concentrations from 10^−9 M to observe the vasodilator response through the change in tension of the aorta ring. The dose dependency of the vasodilator response was also studied.
The vasodilating test was conducted in the same way as in Example 1, except that the tripeptides VPP and IPP were replaced with amino acids, valine (Val) and proline (Pro), at the same concentration.

[2] = tested on: blood vessel from which the vascular endothelium was physically removed; test: Confirmatory test for endothelium dependency of vasodilator response; type: cell-based, Wistar rat; details: endothelium-removed vessel compared with intact vessel; FIG. 2
Experimental: In order to confirm that the vasodilator effect of VPP and IPP was associated with the vascular endothelium, a vasodilating test similar to the above was conducted with VPP, using as a control a blood vessel from which the vascular endothelium was physically removed by a routine method.

Compound	vasodilator response at 10 mM [1]	concentration from which the vasodilator response was observed [1]	vasodilator response after removal of the endothelium [2]
O=C(O)[C@@H]1CCCN1 [Pro, proline, reference compound]	no vasodilator response was observed		
CC(C)[C@H](N)C(=O)O [Val, valine, reference compound]	no vasodilator response was observed		
Ile-Pro-Pro [IPP]	clear, transient vasodilator response	1 mM	
Val-Pro-Pro [VPP]	clear, transient vasodilator response	1 mM	weakened
